Source: US12486300B2, “Mithramycin oxime derivatives having increased selectivity and anti-cancer activity” (University of Kentucky Research Foundation, priority 2018, dated 2025)

Tests used:
Assay type in all cases: cell-based
[1] = tested on: TC32 Ewing sarcoma cells, expressing EWS-FLI1; experiment: Growth inhibition assay, TC32 cells; conditions: for EC50: Table 1D, read-out: TC-32 Mean EC50; for PC:TC32 (cellular selectivity): ratio of GI50 PC3 to TC32
Procedure: (§1) Growth inhibition assay to assess cytotoxicity in ETS vs non-ETS expressing cells. Cells were seeded in clear 96-well plates (VWR, Radnor, PA). Seeding densities were optimized for each cell line to support 5 days of linear growth. Following a 24 hours attachment period, cells in duplicate wells were treated with half-log increments of respective compounds (0 nM and 0.3 nM-10 μM). Working stocks were prepared from an initial 10 mM drug stock diluted in either 100% ethanol or dimethyl sulfoxide (DMSO). All wells contained a final concentration of 0.1% (v/v) respective organic solvent. Immediately following treatment, cell viability was measured for vehicle control (Day 0) wells. Cell viability was measured in the remaining wells after 72 hours of incubation with compound or vehicle control (Day 3).
(§2) Percent viability, relative to the initial cell seeding concentration, was calculated by ((TreatmentDay3−Vehicle ControlDay0)/(Vehicle ControlDay3−Vehicle ControlDay0))×100. Percent cell viability was plotted as a function of compound concentration (Log [M]) and the data were fit using a 3-parameter non-linear model with fixed Hill slope constant and 4-parameter non-linear model with variable Hill slope constant. The model with the best curve fit was used to estimate the GI50 in GraphPad Prism 7.0 software (GraphPad Software, La Jolla, CA). The 3-parameter equation used was Y=Bottom+(Top−Bottom)/(1+10[…]((X−Log[IC50]))). The 4-parameter equation used was Y=Bottom+(Top−Bottom)/(1+10[…]((Log[IC50]−X)*Hillslope)). Top and Bottom are plateaus in the units of the Y-axis (response). IC50 is the response (Y-axis) halfway between Top and Bottom plateaus.
(§3) All compounds were tested at least once in multi-well replicates and each experiment included one a control compound (i.e., MTM) to ensure the stable response of the cell lines. The selectivity index was estimated by determining the ratio of GI50 estimates between ETS fusion negative and ETS fusion positive cell lines.

[2] = tested on: U-2 OS bone osteosarcoma; experiment: Growth inhibition assay, U-2 OS cells; conditions: Table 1D
Procedure: as §1, with “3). For viability measurements, 0.1 mM resazurin (Sigma, St. Louis, MO) was added to wells and following 3 hours of incubation at 37° C., fluorescence readings ([…]) were recorded using a SpectraMax M5 plate reader (Molecular Devices, Sunnyvale, CA).” for “3).”
as §2
as §3, with “GI50 values were determined by pooling all available experiments and reported with 95% confidence interval, calculated from GraphPad Prism 7.0 software curve fit. All” for “All”

[3] = tested on: A-204 (ATTC Cat. No., HTB-82); Rhabdomyosarcoma (embryonal); experiment: Growth inhibition assay, A-204 cells; conditions: Table 1D
Procedure: as §1, with “3). For viability measurements, 0.1 mM resazurin (Sigma, St. Louis, MO) was added to wells and following 3 hours of incubation at 37° C., fluorescence readings ([…]) were recorded using a SpectraMax M5 plate reader (Molecular Devices, Sunnyvale, CA).” for “3).”
as §2
as §3, with “GI50 values were determined by pooling all available experiments and reported with 95% confidence interval, calculated from GraphPad Prism 7.0 software curve fit. All” for “All”

[4] = tested on: PC3 Prostate Cancer Cells; experiment: Growth inhibition assay, PC3 cells; conditions: Table 1D
Procedure: as §1, §2, §3

[5] = tested on: G-401 (ATTC Cat. No., CRL-1441); Rhabdoid tumor of the kidney; experiment: Growth inhibition assay, G-401 cells; conditions: Table 1D
Procedure: as §1, with “3). For viability measurements, 0.1 mM resazurin (Sigma, St. Louis, MO) was added to wells and following 3 hours of incubation at 37° C., fluorescence readings ([…]) were recorded using a SpectraMax M5 plate reader (Molecular Devices, Sunnyvale, CA).” for “3).”
as §2
as §3, with “GI50 values were determined by pooling all available experiments and reported with 95% confidence interval, calculated from GraphPad Prism 7.0 software curve fit. All” for “All”

[6] = tested on: RH30 muscle rhabdomyosarcoma; experiment: Growth inhibition assay, RH30 cells; conditions: Table 1D
Procedure: as §1, with “3). For viability measurements, 0.1 mM resazurin (Sigma, St. Louis, MO) was added to wells and following 3 hours of incubation at 37° C., fluorescence readings ([…]) were recorded using a SpectraMax M5 plate reader (Molecular Devices, Sunnyvale, CA).” for “3).”
as §2
as §3, with “GI50 values were determined by pooling all available experiments and reported with 95% confidence interval, calculated from GraphPad Prism 7.0 software curve fit. All” for “All”

| SMILES | EC50 [1] | PC:TC32 (cellular selectivity) [1] | EC50 [2] | EC50 [3] | EC50 [4] | EC50 [5] | EC50 [6] |
| --- | --- | --- | --- | --- | --- | --- | --- |
| CO[C@H](/C(=N/OCC(=O)N[C@@H](Cc1c[nH]c2ccccc12)c1nc(C)co1)[C@@H](O)[C@@H](C)O)[C@@H]1Cc2cc3cc(O[C@H]4C[C@@H](O[C@H]5C[C@@H](O)[C@H](O)C(C)O5)[C@H](O)C(C)O4)c(C)c(O)c3c(O)c2C(=O)[C@H]1O[C@H]1C[C@@H](O[C@H]2C[C@@H](O[C@H]3C[C@](C)(O)[C@H](O)C(C)O3)[C@H](O)C(C)O2)[C@H](O)C(C)O1 (stereo partly drawn) [MTM (57)] | 74 nM | 3.3 | > 10000 nM | 3180 nM | > 1680 nM | 712 nM |  |
| COC(C(=NOCC(=O)NC(Cc1c[nH]c2ccccc12)C(=O)N1CC(C)(C)C1)C(O)C(C)O)C1Cc2cc3cc(OC4CC(OC5CC(O)C(O)C(C)O5)C(O)C(C)O4)c(C)c(O)c3c(O)c2C(=O)C1OC1CC(OC2CC(OC3CC(C)(O)C(O)C(C)O3)C(O)C(C)O2)C(O)C(C)O1 (stereo not drawn) [MTM105] | 29.4 nM |  | > 10000 nM |  | 177 nM | 23.4 nM | 45.9 nM |
| CO[C@H](/C(=N/OCC(=O)N[C@@H](Cc1c[nH]c2ccccc12)C(=O)N(C)OC)[C@@H](O)[C@@H](C)O)[C@@H]1Cc2cc3cc(O[C@H]4C[C@@H](O[C@H]5C[C@@H](O)[C@H](O)C(C)O5)[C@H](O)C(C)O4)c(C)c(O)c3c(O)c2C(=O)[C@H]1O[C@H]1C[C@@H](O[C@H]2C[C@@H](O[C@H]3C[C@](C)(O)[C@H](O)C(C)O3)[C@H](O)C(C)O2)[C@H](O)C(C)O1 (stereo partly drawn) [MTM (54)] | 67 nM | 1.7 |  |  | 437 nM |  |  |
| CO[C@H](/C(=N/OCC(=O)N[C@@H](Cc1c[nH]c2ccccc12)C(=O)N(C)C)[C@@H](O)[C@@H](C)O)[C@@H]1Cc2cc3cc(O[C@H]4C[C@@H](O[C@H]5C[C@@H](O)[C@H](O)C(C)O5)[C@H](O)C(C)O4)c(C)c(O)c3c(O)c2C(=O)[C@H]1O[C@H]1C[C@@H](O[C@H]2C[C@@H](O[C@H]3C[C@](C)(O)[C@H](O)C(C)O3)[C@H](O)C(C)O2)[C@H](O)C(C)O1 (stereo partly drawn) [MTM (44)] | 84.5 nM | 35 |  |  | > 1470 nM |  |  |
| COC(=O)C(Cc1ccccc1)NC(=O)C(Cc1c[nH]c2ccccc12)NC(=O)CON=C(C(O)C(C)O)C(OC)C1Cc2cc3cc(OC4CC(OC5CC(O)C(O)C(C)O5)C(O)C(C)O4)c(C)c(O)c3c(O)c2C(=O)C1OC1CC(OC2CC(OC3CC(C)(O)C(O)C(C)O3)C(O)C(C)O2)C(O)C(C)O1 (stereo not drawn) [MTM (51)] |  | 2.2 |  |  |  |  |  |
| COc1ccc(CON=C(C(O)C(C)O)C(OC)C2Cc3cc4cc(OC5CC(OC6CC(O)C(O)C(C)O6)C(O)C(C)O5)c(C)c(O)c4c(O)c3C(=O)C2OC2CC(OC3CC(OC4CC(C)(O)C(O)C(C)O4)C(O)C(C)O3)C(O)C(C)O2)cc1 (stereo not drawn) [MTM (14Z)] |  | 2.91 |  |  |  |  |  |
| COC(C(=NOCC(=O)Nc1ccc2ncccc2c1)C(O)C(C)O)C1Cc2cc3cc(OC4CC(OC5CC(O)C(O)C(C)O5)C(O)C(C)O4)c(C)c(O)c3c(O)c2C(=O)C1OC1CC(OC2CC(OC3CC(C)(O)C(O)C(C)O3)C(O)C(C)O2)C(O)C(C)O1 (stereo not drawn) [MTM (74)] |  | 66.6 |  |  |  |  |  |
| COC(C(=NOC(C)(C)C)C(O)C(C)O)C1Cc2cc3cc(OC4CC(OC5CC(O)C(O)C(C)O5)C(O)C(C)O4)c(C)c(O)c3c(O)c2C(=O)C1OC1CC(OC2CC(OC3CC(C)(O)C(O)C(C)O3)C(O)C(C)O2)C(O)C(C)O1 (stereo not drawn) [MTM (15Z)] |  | 2.25 |  |  |  |  |  |
